Results on 27 compounds are retold here after ChEMBL document CHEMBL1136537, “The discovery of a new class of large-conductance Ca2+-activated K+ channel opener targeted for overactive bladder: synthesis and structure-activity relationships of 2-amino-4-azaindoles” (Bioorg Med Chem Lett, 2003).

Experiment [1] addresses T1, Calcium-activated potassium channel subunit alpha-1 (Homo sapiens, UniProt Q12791). The experiment can be described thus: BKca channel opening activity in HEK293 cells stably transfected with BKca alpha subunits at 10 uM concentration using a [86Rb+] efflux assay. The experiment is classed as cell-based.
Experiment [2] addresses T1, Calcium-activated potassium channel subunit alpha-1. The experiment can be described thus: [86Rb+] efflux induced by BKca alpha subunits expressed in HEK293 cells at 10 uM. The experiment is classed as cell-based.
The species entered for experiment [3] is Sus scrofa. Briefly: In vitro maximal efficacy in stable twitch response in isolated Landrace pig bladder detrusor strips relative to P-1075.
The species entered for experiment [4] is Sus scrofa. The experiment can be described thus: In vitro concentration to suppress electrically stimulated contraction in isolated Landrance pig bladder detrusor strips. The experiment is classed as functional.
For experiment [5], the target named is T1, Calcium-activated potassium channel subunit alpha-1. The experiment can be described thus: BKca opening activity as outward current at 10 uM in HEK293 cells. The experiment is classed as cell-based.

T1 sequence (Q12791 whole entry): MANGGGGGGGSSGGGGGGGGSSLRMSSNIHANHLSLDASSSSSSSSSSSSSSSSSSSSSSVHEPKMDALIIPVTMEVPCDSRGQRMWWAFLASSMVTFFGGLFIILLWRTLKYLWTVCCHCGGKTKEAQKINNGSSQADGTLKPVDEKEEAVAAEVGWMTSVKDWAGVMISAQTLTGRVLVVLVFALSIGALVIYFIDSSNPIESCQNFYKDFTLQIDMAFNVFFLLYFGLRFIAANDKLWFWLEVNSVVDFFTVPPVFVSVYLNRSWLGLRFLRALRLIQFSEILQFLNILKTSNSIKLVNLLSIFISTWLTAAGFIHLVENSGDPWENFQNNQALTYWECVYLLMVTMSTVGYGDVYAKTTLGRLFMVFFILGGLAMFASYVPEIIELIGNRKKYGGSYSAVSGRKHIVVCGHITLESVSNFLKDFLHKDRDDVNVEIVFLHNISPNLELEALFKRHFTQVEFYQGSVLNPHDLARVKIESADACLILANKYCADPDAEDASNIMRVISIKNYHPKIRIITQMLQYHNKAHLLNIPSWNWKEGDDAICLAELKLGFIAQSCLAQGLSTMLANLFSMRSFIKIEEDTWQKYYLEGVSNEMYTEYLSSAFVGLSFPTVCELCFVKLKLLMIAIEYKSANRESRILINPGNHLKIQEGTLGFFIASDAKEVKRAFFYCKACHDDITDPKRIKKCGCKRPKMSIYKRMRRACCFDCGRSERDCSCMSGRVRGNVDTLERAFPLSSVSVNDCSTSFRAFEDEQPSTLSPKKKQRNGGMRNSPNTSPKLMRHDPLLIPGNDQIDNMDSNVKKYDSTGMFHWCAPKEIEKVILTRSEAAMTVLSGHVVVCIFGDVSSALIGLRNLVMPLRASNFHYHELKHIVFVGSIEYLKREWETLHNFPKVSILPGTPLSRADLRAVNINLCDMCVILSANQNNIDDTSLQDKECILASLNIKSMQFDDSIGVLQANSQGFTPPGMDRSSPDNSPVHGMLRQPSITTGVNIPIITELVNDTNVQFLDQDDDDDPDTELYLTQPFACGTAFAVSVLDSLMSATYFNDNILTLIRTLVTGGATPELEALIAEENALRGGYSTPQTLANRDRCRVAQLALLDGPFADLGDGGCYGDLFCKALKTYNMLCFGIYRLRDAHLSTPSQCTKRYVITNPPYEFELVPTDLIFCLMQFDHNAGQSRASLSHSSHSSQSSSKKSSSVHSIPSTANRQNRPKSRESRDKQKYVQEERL

For orientation: EC50 means the concentration needed to bring the measured effect to its halfway point. For the compound `N#Cc1c(Nc2ccccc2)[nH]c2cccnc12`, the Response in experiment [1] amounted to 0%. Also, the concentration giving a half-maximal response (EC50) result in experiment [2] is given as “Not Active”.
With `N#Cc1c(N2CC=CC2)[nH]c2cccnc12`, the Response in experiment [1] was determined as 0%. In addition, the EC50 entry in experiment [2] is given as “Not Active”.
Regarding `N#Cc1c(N2CC3CCC(CC3)C2)[nH]c2cccnc12`, the Response in experiment [1] was determined as 74%. The EC50 in experiment [2] is 4.43 µM.
Take `N#Cc1c(N2CCCCCCC2)[nH]c2cccnc12`: in experiment [1], the Response was 0%. In experiment [2], the EC50 entry was “Not Active”.
With `N#Cc1c(N2CCCCC2)[nH]c2cccnc12`, the Response in experiment [1] was determined as 3.02%. In experiment [3], the Efficacy is 67%. Also, the EC50 in experiment [4] is 24.8 µM; in experiment [2] it was “Not Active”.
Consider `N#Cc1c(N2CCCC2)[nH]c2cccnc12`, for which the Response in experiment [1] turned out to be 58%. In experiment [2], the EC50 is 8.12 µM.
Regarding `COC(=O)C1CCN(c2[nH]c3cccnc3c2C#N)CC1`, the Response in experiment [1] amounted to 55%. Also, in experiment [2], the EC50 turned out to be 17 µM.
On to `CCN(CC)c1[nH]c2cccnc2c1C#N`, for which the Response in experiment [1] turned out to be 57%. For the same compound, the EC50 in experiment [2] was 6.94 µM.
Consider `N#Cc1c(N2CCC(O)CC2)[nH]c2cccnc12`, for which the Response in experiment [1] is 28%. Moreover, in experiment [2], the EC50 was 15.1 µM.
`N#Cc1c(N2CCC[C@H]2CO)[nH]c2cccnc12`: in experiment [1], the Response is 0%. In addition, the EC50 result in experiment [2] is “Not Active”.
As to `N#Cc1c(O)[nH]c2cccnc12`, the Response in experiment [1] is 65%. Moreover, the EC50 in experiment [2] came to 13.4 µM.
Take `N#Cc1c(N2CC[C@@H](O)C2)[nH]c2cccnc12`: the Response in experiment [1] was 0%. Also, the EC50 result in experiment [2] is “Not Active”.
On to `CN(C)CCN(C)c1[nH]c2cccnc2c1C#N`, for which the Response in experiment [1] came out at 63%. Further, the concentration giving a half-maximal response (EC50) in experiment [2] was 6.75 µM.
Take `CN1CCCN(c2[nH]c3cccnc3c2C#N)CC1`: the Response in experiment [1] amounted to 0%. Further, in experiment [2], the concentration giving a half-maximal response (EC50) result was “Not Active”.
Take `N#Cc1c(N2CCCCCC2)[nH]c2cccnc12`: the Response in experiment [1] is 61%. The Activity in experiment [5] was 105%. This compound had an Efficacy in experiment [3] of 63%. The results for the EC50 in experiment [4] and in experiment [2] were 25.9 µM and 3.34 µM, respectively.
On the same counts, the results for `N#Cc1c(N2CCC[C@H](O)C2)[nH]c2cccnc12` are 65%, 108%, 31%, 9.26 µM and 5.07 µM.
In the case of `CCCN(CCO)c1[nH]c2cccnc2c1C#N`, the Response in experiment [1] amounted to 0%. Moreover, the EC50 result in experiment [2] is “Not Active”.
On to `CN(C)c1[nH]c2cccnc2c1C#N`, for which the Response in experiment [1] came to 60%. Further, the Activity in experiment [5] was determined as 75.5%. The Efficacy in experiment [3] is 58%. The EC50 was found to be 23.5 µM in experiment [4] and 5.13 µM in experiment [2].
Regarding `N#Cc1c(Cl)[nH]c2cccnc12`, the Response in experiment [1] worked out at 0%. For the same compound, in experiment [2], the EC50 result is reported as “Not Active”.
With `N#Cc1c(N2CCOCC2)[nH]c2cccnc12`, the Response in experiment [1] is 62%. Moreover, in experiment [2], the EC50 is 3.86 µM.
Consider `N#Cc1c(NCc2ccccc2)[nH]c2cccnc12`, for which the Response in experiment [1] turned out to be 0%. In addition, the EC50 result in experiment [2] is “Not Active”.
On the same counts, the results for `N#Cc1c(N2CCC[C@@H]2CO)[nH]c2cccnc12` are 0% and “Not Active”.
On the same counts, the results for `CN1CCN(c2[nH]c3cccnc3c2C#N)CC1` are 0% and “Not Active”.
Take `N#Cc1c(N2CCC3CCCCC3C2)[nH]c2cccnc12` (stereo unspecified): in experiment [1], the Response came out at 0%. Moreover, in experiment [2], the EC50 result was “Not Active”.
`N#Cc1c(-n2ccnc2)[nH]c2cccnc12`: the Response in experiment [1] was determined as 62%. In experiment [2], the EC50 is 5.86 µM.
On the same counts, the results for `C[C@@H]1CC[C@@H](C)N1c1[nH]c2cccnc2c1C#N` are 0% and “Not Active”.
Turning to `Cc1c(-c2ccccc2F)[nH]c(N)c1C#N`, in experiment [5], the Response worked out at 21.7%. Further, in experiment [3], the Efficacy worked out at 93%. The same compound gave an EC50 in experiment [4] of 63.1 µM.
